Experimental data published in patent publication US20100174065A1, “COMPOUNDS” (GLAXO GROUP LIMITED, priority 2007, published 2010).
Counter-ions that a name gives are not always drawn.

Biological target: T1, human S1P1 receptor (Homo sapiens, UniProt P21453)
T1 construct: expressed in transfected cells; membranes
Experiment: S1P1 GTPγS assay
Format: biochemical
Conditions: agonist activity, [35S]-GTPγS binding, human S1P1 rat hepatoma membranes
Experimental: (§1) For membrane preparations all steps were performed at 4° C. Rat hepatoma cells stably expressing the human S1P1 receptor or Rat Basophilic Leukaemia cells (RBL) stably expressing human S1P3 receptor were grown to 80% confluency before being harvested into 10 ml Phospho-Buffered Saline (PBS) and centrifuged at 1200 rpm for 5 minutes. After removal of the supernatant, the pellet was re-suspended and cells were homogenised within a glass Waring blender for 2 bursts of 15 secs in 200 mls of buffer (50 mM HEPES, 1 mM leupeptin, 25 μg/ml bacitracin, 1 mM EDTA, 1 mM PMSF, 2 μM pepstatin A). The blender was plunged into ice for 5 mins after the first burst and 10-40 mins after the final burst to allow foam to dissipate. The material was then spun at 500 g for 20 mins and the supernatant spun for 36 mins at 48,000 g. The pellet was resuspended in the same buffer as above but without PMSF and pepstatin A. The material was then forced through a 0.6 mm needle, made up to the required volume, (usually ×4 the volume of the original cell pellet), aliquoted and stored frozen at −80° C.
as §1, with “All” for “For membrane preparations all”, “Cells” for “Rat hepatoma cells stably expressing the human S1P1 receptor or Rat Basophilic Leukaemia cells (RBL) stably expressing human S1P3 receptor were grown to 80% confluency before being harvested into 10 ml Phospho-Buffered Saline (PBS) and centrifuged at 1200 rpm for 5 minutes. After removal of the supernatant, the pellet was re-suspended and cells”
Human S1P1 rat hepatoma membranes (1.5 μg/well) were adhered to a wheatgerm agglutinin (WGA)-coated scintillation proximity assay (SPA) beads (0.125 mg/well) in assay buffer (HEPES 20 mM, MgCl2 10 mM, NaCl 100 mM and pH adjusted to 7.4 using KOH 5M, GDP 10 μM FAC (final assay concentration) and saponin 90 μg/ml FAC was also added).
After 30 minutes pre-coupling on ice the bead and membrane suspension was dispensed into a white Greiner polypropylene LV384-well plate ([…]), containing 0.1 μl of the compound. 5 μl/well [^355]-GTPγS (0.5 nM final radioligand conc) made up in assay buffer was then added to agonist plates. The final assay cocktail (10.1 μl) was then centrifuged at 1000 rpm for 5 minutes then read immediately on a Viewlux reader.
All test compounds were dissolved in DMSO at a concentration of 10 mM and were prepared in 100% DMSO using a 1 in 4 dilution step to provide 11 point dose response curves. The dilutions were transferred to the assay plates ensuring that the DMSO concentration was constant across the plate for all assays.
All data was normalized to the mean of 16 high and 16 low control wells on each plate. A four parameter curve fit was then applied.
S1P1 expressing RH7777 membranes (1.5 μg/well) membranes (1.5 μg/well) were homogenised by passing through a 23G needle. These were then adhered to WGA-coated SPA beads (0.125 mg/well) in assay buffer (HEPES 20 mM, MgCl2 10 mM, NaCl 100 mM and pH adjusted to 7.4 using KOH 5M). GDP 10 μM FAC and saponin 90 μg/ml FAC were also added
After 30 minutes precoupling on ice, the bead and membrane suspension was dispensed into white Greiner polypropylene LV 384-well plates (5 μl/well), containing 0.1 μl of compound. 5 μl/well [^35S]-GTPγS (0.5 nM for S1P1 or 0.3 nM for S1P3 final radioligand concentration) made in assay buffer was then added to the plates. The final assay cocktail (10.1 μl) was then sealed, spun on a centrifuge, then read immediately on a Viewlux instrument.

T1 sequence (P21453 whole entry): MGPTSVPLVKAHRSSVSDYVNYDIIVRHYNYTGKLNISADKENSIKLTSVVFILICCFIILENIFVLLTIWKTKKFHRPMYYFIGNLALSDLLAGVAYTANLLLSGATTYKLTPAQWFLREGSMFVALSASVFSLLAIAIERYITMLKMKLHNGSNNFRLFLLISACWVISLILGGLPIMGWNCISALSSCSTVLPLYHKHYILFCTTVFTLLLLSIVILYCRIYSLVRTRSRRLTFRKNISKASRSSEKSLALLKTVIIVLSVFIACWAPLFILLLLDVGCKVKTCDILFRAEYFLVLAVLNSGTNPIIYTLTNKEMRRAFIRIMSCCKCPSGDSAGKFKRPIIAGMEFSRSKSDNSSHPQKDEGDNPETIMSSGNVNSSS

Structure (SMILES)	EC50 [nM]
CC(C)Oc1ccc(-c2nc(-c3ccc4c(c3)CCCN(CCC(=O)O)C4)no2)cc1C#N [Example 6, 3-[7-(5-{3-Cyano-4-[(1-methylethyl)oxy]phenyl}-1,2,4-oxadiazol-3-yl)-1,3,4,5-tetrahydro-2H-2-benzazepin-2-yl]propanoic acid hydrochloride]	< 100
CC(C)Oc1ccc(-c2nc(-c3cccc4c3CCNCC4)no2)cc1C#N [Example 7, 2-[(1-Methylethyl)oxy]-5-[3-(2,3,4,5-tetrahydro-1H-3-benzazepin-6-yl)-1,2,4-oxadiazol-5-yl]benzonitrile hydrochloride]	≤ 10
CC(C)Oc1ccc(-c2nc(-c3cccc4c3CCNCC4)no2)cc1Cl [Example 8, 6-(5-{3-Chloro-4-[(1-methylethyl)oxy]phenyl}-1,2,4-oxadiazol-3-yl)-2,3,4,5-tetrahydro-1H-3-benzazepine hydrochloride]	< 100
CC(C)Oc1ccc(-c2nc(-c3cccc4c3CCCN(CC(=O)O)C4)no2)cc1Cl [Example 12, [6-(5-{3-Chloro-4-[(1-methylethyl)oxy]phenyl}-1,2,4-oxadiazol-3-yl)-1,3,4,5-tetrahydro-2H-2-benzazepin-2-yl]acetic acid hydrochloride]	< 100
CC(C)Oc1ccc(-c2nc(-c3ccc4c(c3)CCNCC4)no2)cc1C#N [Example 18, 2-[(1-Methylethyl)oxy]-5-[3-(2,3,4,5-tetrahydro-1H-3-benzazepin-7-yl)-1,2,4-oxadiazol-5-yl]benzonitrile hydrochloride]	< 100
CC(C)Oc1ccc(-c2nc(-c3ccc4c(c3)CCNCC4)no2)cc1C(F)(F)F [Example 19, 7-{5-[4-[(1-Methylethyl)oxy]-3-(trifluoromethyl)phenyl]-1,2,4-oxadiazol-3-yl}-2,3,4,5-tetrahydro-1H-3-benzazepine hydrochloride]	< 100
CC(C)Oc1ccc(-c2nc(-c3ccc4c(c3)CCN(CCC(=O)O)CC4)no2)cc1Cl [Example 21, 3-[7-(5-{3-Chloro-4-[(1-methylethyl)oxy]phenyl}-1,2,4-oxadiazol-3-yl)-1,2,4,5-tetrahydro-3H-3-benzazepin-3-yl]propanoic acid]	≤ 10
CC(C)Oc1ccc(-c2nc(-c3ccc4c(c3)CCN(CC(=O)O)CC4)no2)cc1Cl [Example 22, [7-(5-{3-Chloro-4-[(1-methylethyl)oxy]phenyl}-1,2,4-oxadiazol-3-yl)-1,2,4,5-tetrahydro-3H-3-benzazepin-3-yl]acetic acid]	< 100
CC(C)Oc1ccc(-c2nc(-c3ccc4c(c3)CCN(CC(=O)O)CC4)no2)cc1C#N [Example 23, [7-(5-{3-Cyano-4-[(1-methylethyl)oxy]phenyl}-1,2,4-oxadiazol-3-yl)-1,2,4,5-tetrahydro-3H-3-benzazepin-3-yl]acetic acid]	≤ 10
CC(C)Oc1ccc(-c2nc(-c3ccc4c(c3)CCN(CC(=O)O)CC4)no2)cc1C(F)(F)F [Example 24, (7-{5-[4-[(1-Methylethyl)oxy]-3-(trifluoromethyl)phenyl]-1,2,4-oxadiazol-3-yl}-1,2,4,5-tetrahydro-3H-3-benzazepin-3-yl)acetic acid]	≤ 10
O=C(O)CN1CCc2ccc(-c3noc(-c4ccc(-c5ccccc5)c(C(F)(F)F)c4)n3)cc2CC1 [Example 25, (7-{5-[2-(Trifluoromethyl)-4-biphenylyl]-1,2,4-oxadiazol-3-yl}-1,2,4,5-tetrahydro-3H-3-benzazepin-3-yl)acetic acid]	< 100
CC(C)Oc1ccc(-c2nc(-c3ccc4c(c3)CCN(CCCC(=O)O)CC4)no2)cc1Cl [Example 26, 4-[7-(5-{3-Chloro-4-[(1-methylethyl)oxy]phenyl}-1,2,4-oxadiazol-3-yl)-1,2,4,5-tetrahydro-3H-3-benzazepin-3-yl]butanoic acid]	≤ 10
CC(C)Oc1ccc(-c2nc(-c3ccc4c(c3)CCN(CCCC(=O)O)CC4)no2)cc1C#N [Example 27, 4-[7-(5-{3-cyano-4-[(1-methylethyl)oxy]phenyl}-1,2,4-oxadiazol-3-yl)-1,2,4,5-tetrahydro-3H-3-benzazepin-3-yl]butanoic acid hydrochloride]	≤ 10
CC(C)Oc1ccc(-c2nc(-c3ccc4c(c3)CCN(CCCC(=O)O)CC4)no2)cc1C(F)(F)F [Example 28, 4-(7-{5-[4-[(1-Methylethyl)oxy]-3-(trifluoromethyl)phenyl]-1,2,4-oxadiazol-3-yl}-1,2,4,5-tetrahydro-3H-3-benzazepin-3-yl)butanoic acid hydrochloride]	≤ 10
O=C(O)CCCN1CCc2ccc(-c3noc(-c4ccc(-c5ccccc5)c(C(F)(F)F)c4)n3)cc2CC1 [Example 29, 4-(7-{5-[2-(Trifluoromethyl)-4-biphenylyl]-1,2,4-oxadiazol-3-yl}-1,2,4,5-tetrahydro-3H-3-benzazepin-3-yl)butanoic acid hydrochloride]	< 100
CC(C)Oc1ccc(-c2nc(-c3cccc4c3OCCNC4)no2)cc1Cl [Example 31, 9-(5-{3-Chloro-4-[(1-methylethyl)oxy]phenyl}-1,2,4-oxadiazol-3-yl)-2,3,4,5-tetrahydro-1,4-benzoxazepine hydrochloride]	< 100

Now from value to compound:

EC50 [nM]	Structure (SMILES)
< 100	CC(C)Oc1ccc(-c2nc(-c3cccc4c3OCCNC4)no2)cc1C#N [Example 32, 2-[(1-Methylethyl)oxy]-5-[3-(2,3,4,5-tetrahydro-1,4-benzoxazepin-9-yl)-1,2,4-oxadiazol-5-yl]benzonitrile hydrochloride]
< 100	CC(C)Oc1ccc(-c2nc(-c3cccc4c3OCCN(CCCC(=O)O)C4)no2)cc1Cl [Example 33, 4-[9-(5-{3-Chloro-4-[(1-methylethyl)oxy]phenyl}-1,2,4-oxadiazol-3-yl)-2,3-dihydro-1,4-benzoxazepin-4(5H)-yl]butanoic acid]
< 100	CC(C)Oc1ccc(-c2nc(-c3cccc4c3OCCN(CCCC(=O)O)C4)no2)cc1C#N [Example 34, 4-[9-(5-{3-Cyano-4-[(1-methylethyl)oxy]phenyl}-1,2,4-oxadiazol-3-yl)-2,3-dihydro-1,4-benzoxazepin-4(5H)-yl]butanoic acid]
< 100	CC(C)Oc1ccc(-c2nc(-c3ccc4c(c3)CNCCO4)no2)cc1C#N [Example 35, 2-[(1-Methylethyl)oxy]-5-[3-(2,3,4,5-tetrahydro-1,4-benzoxazepin-7-yl)-1,2,4-oxadiazol-5-yl]benzonitrile hydrochloride]
< 100	CC(C)Oc1ccc(-c2nc(-c3ccc4c(c3)CN(CCC(=O)O)CCO4)no2)cc1C#N [Example 37, 3-[7-(5-{3-Cyano-4-[(1-methylethyl)oxy]phenyl}-1,2,4-oxadiazol-3-yl)-2,3-dihydro-1,4-benzoxazepin-4(5H)-yl]propanoic acid]
< 100	CC(C)Oc1ccc(-c2nc(-c3ccc4c(c3)CN(CCCC(=O)O)CCO4)no2)cc1C#N [Example 39, 4-[7-(5-{3-Cyano-4-[(1-methylethyl)oxy]phenyl}-1,2,4-oxadiazol-3-yl)-2,3-dihydro-1,4-benzoxazepin-4(5H)-yl]butanoic acid]
< 100	CC(C)Oc1ccc(-c2nc(-c3ccc4c(c3)OCCNC4)no2)cc1C#N [Example 41, 2-[(1-Methylethyl)oxy]-5-[3-(2,3,4,5-tetrahydro-1,4-benzoxazepin-8-yl)-1,2,4-oxadiazol-5-yl]benzonitrile]
< 100	CC(C)Oc1ccc(-c2nc(-c3cccc4c3OCCN(CCCCC(=O)O)C4)no2)cc1C#N [Example 43, 5-[9-(5-{3-Cyano-4-[(1-methylethyl)oxy]phenyl}-1,2,4-oxadiazol-3-yl)-2,3-dihydro-1,4-benzoxazepin-4(5H)-yl]pentanoic acid]
